Drawing on patent publication US12187702B2, “Sulfonamideurea compounds” (Inflazome Limited, priority 2018, dated 2025), this text covers IC50 for 24 compounds.

Assay [1] has as its target T1, NLRP3 (Homo sapiens, UniProt Q96P20). Kind of assay: Human whole blood IL-1β release assay (LPS + nigericin, AlphaLisa). Particulars: human whole blood, 1 μg/ml LPS, 10 μM nigericin; IL-1β release; read-out: HWB IC50. Type of assay: cell-based. The arrangement: Plate out 80 μl of whole blood containing 1 μg/ml of LPS; from tissue; host or cells: human whole blood from healthy donors. The procedure: For systemic delivery, the ability to inhibit NLRP3 when the compounds are present within the bloodstream is of great importance. For this reason, the NLRP3 inhibitory activity of a number of compounds in human whole blood was investigated in accordance with the following protocol.
Human whole blood in Li-heparin tubes was obtained from healthy donors from a volunteer donor panel. • 1. Plate out 80 μl of whole blood containing 1 μg/ml of LPS in 96-well, clear bottom cell culture plate (Corning #3585) • 2. Add 10 μl compound (8 points half-log dilution with 10 μM top dose) or vehicle (DMSO 0.1% FAC) to the appropriate wells • 3. Incubate for 3 hrs at 37° C., 5% CO2 • 4. Add 10 μl nigericin (Sigma #N7143) (10 μM FAC) to all wells • 5. Incubate for 1 hr at 37° C., 5% CO2 • 6. At the end of the incubation period, spin plates at 300×g for 5 mins to pellet cells and remove 20 μl of supernatant and add to 96-well v-bottom plates for IL-1β analysis (note: these plates containing the supernatants can be stored at −80° C. to be analysed at a later date) • 7. IL-1β was measured according to the manufacturer protocol (Perkin Elmer-AlphaLisa IL-1 Kit AL220F-5000) • 8. IC50 data is fitted to a non-linear regression equation (log inhibitor vs response-variable slope 4-parameters)

In assay [2] the target is T1, NLRP3. Kind of assay: THP-1 cells pyroptosis assay (LPS + nigericin, resazurin read-out). It counts as cell-based. Also on record: Seed THP-1 cells (25,000 cells/well) containing 1.0 μg/ml LPS; host or cells: THP-1 cells. Particulars: THP-1 cells, 1 μg/ml LPS, 5 μM nigericin; NLRP3 inhibitory activity; read-out: THP IC50. The protocol:
THP-1 cells (ATCC #TIB-202) were grown in RPMI containing L-glutamine (Gibco #11835) supplemented with 1 mM sodium pyruvate (Sigma #S8636) and penicillin (100 units/ml)/streptomycin (0.1 mg/ml) (Sigma #P4333) in 10% Fetal Bovine Serum (FBS) (Sigma #F0804). The cells were routinely passaged and grown to confluency (˜10^6 cells/ml). On the day of the experiment, THP-1 cells were harvested and resuspended into RPMI medium (without FBS). The cells were then counted and viability (>90%) checked by Trypan blue (Sigma #T8154). Appropriate dilutions were made to give a concentration of 625,000 cells/ml. To this diluted cell solution was added LPS (Sigma #L4524) to give a 1 μg/ml Final Assay Concentration (FAC). 40 μl of the final preparation was aliquoted into each well of a 96-well plate. The plate thus prepared was used for compound screening.
The following method step-by-step assay was followed for compound screening. • 1. Seed THP-1 cells (25,000 cells/well) containing 1.0 μg/ml LPS in 40 μl of RPMI medium (without FBS) in 96-well, black walled, clear bottom cell culture plates coated with poly-D-lysine (VWR #734-0317) • 2. Add 5 μl compound (8 points half-log dilution, with 10 μM top dose) or vehicle (DMSO 0.1% FAC) to the appropriate wells • 3. Incubate for 3 hrs at 37° C., 5% CO2 • 4. Add 5 μl nigericin (Sigma #N7143) (FAC 5 μM) to all wells • 5. Incubate for 1 hr at 37° C., 5% CO2 • 6. At the end of the incubation period, spin plates at 300×g for 3 mins and remove supernatant • 7. Then add 50 μl of resazurin (Sigma #R7017) (FAC 100 μM resazurin in RPMI medium without FBS) and incubate plates for a further 1-2 hrs at 37° C. and 5% CO2 • 8. Plates were read in an Envision reader at Ex 560 nm and Em 590 nm • 9. IC50 data is fitted to a non-linear regression equation (log inhibitor vs response-variable slope 4-parameters)

SMILES strings stand for the structures. Where a name gives a salt, the structure may show the parent alone.

One may read the IC50 as the concentration at which inhibition is half-maximal.

T1 sequence (Q96P20 whole entry): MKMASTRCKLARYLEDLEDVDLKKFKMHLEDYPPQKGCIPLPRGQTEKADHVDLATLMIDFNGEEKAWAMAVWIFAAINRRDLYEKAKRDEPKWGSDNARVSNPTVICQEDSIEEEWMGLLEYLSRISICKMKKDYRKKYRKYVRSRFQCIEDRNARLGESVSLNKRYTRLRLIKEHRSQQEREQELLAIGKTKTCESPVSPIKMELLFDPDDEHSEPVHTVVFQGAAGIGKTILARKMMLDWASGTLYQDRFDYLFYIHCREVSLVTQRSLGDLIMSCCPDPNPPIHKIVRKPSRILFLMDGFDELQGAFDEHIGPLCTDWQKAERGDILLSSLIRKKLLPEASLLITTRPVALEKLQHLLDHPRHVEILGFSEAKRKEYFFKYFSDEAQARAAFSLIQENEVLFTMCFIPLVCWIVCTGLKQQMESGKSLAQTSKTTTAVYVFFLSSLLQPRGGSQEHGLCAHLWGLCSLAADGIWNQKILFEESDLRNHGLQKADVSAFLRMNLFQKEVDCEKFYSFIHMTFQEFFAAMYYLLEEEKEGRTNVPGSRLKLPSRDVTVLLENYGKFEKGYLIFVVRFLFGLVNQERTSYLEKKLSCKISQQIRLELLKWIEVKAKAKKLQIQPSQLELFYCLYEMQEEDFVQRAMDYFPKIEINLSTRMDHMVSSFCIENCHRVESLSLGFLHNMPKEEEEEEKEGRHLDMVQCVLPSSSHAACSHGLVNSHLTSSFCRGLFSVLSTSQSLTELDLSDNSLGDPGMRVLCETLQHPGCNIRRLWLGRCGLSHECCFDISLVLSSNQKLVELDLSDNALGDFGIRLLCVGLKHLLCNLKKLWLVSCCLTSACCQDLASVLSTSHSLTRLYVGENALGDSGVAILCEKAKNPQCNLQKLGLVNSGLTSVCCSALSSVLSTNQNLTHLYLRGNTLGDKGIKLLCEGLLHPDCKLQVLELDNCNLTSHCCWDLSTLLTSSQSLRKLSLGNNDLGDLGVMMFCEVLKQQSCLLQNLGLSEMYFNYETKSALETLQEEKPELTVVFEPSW

Turning to `CN(C)C1CCN(S(=O)(=O)NC(=O)Nc2c3c(cc4c2CCC4)CCC3)C1` (stereo not drawn) [Example 9, 3-(Dimethylamino)-N-((1,2,3,5,6,7-hexahydro-s-indacen-4-yl)carbamoyl)pyrrolidine-1-sulfonamide, potassium salt], the half-maximal inhibitory concentration (IC50) at NLRP3 [1] and at NLRP3 [2] was less than 500 nM throughout.
As for `CN(C)CCN(Cc1ccccc1)S(=O)(=O)NC(=O)Nc1c2c(cc3c1CCC3)CCC2` [Example 10, 3-(N-Benzyl-N-(2-(dimethylamino)ethyl)sulfamoyl)-1-(1,2,3,5,6,7-hexahydro-s-indacen-4-yl)urea, potassium salt], the 50% inhibitory concentration (IC50) on NLRP3 [1] and at NLRP3 [2] was less than 5000 nM throughout.
Take `CN1C2CCC1CN(S(=O)(=O)NC(=O)Nc1c3c(cc4c1CCC4)CCC3)C2` [Example 14, N-((1,2,3,5,6,7-Hexahydro-s-indacen-4-yl)carbamoyl)-8-methyl-3,8-diazabicyclo[3.2.1]octane-3-sulfonamide, potassium salt]: the concentration for half-maximal inhibition (IC50) on NLRP3 [1] and on NLRP3 [2] was less than 500 nM throughout.
Consider `CN(C)C1CCCN(S(=O)(=O)NC(=O)Nc2c3c(cc4c2CCC4)CCC3)C1` (stereo not drawn) [Example 15, potassium salt], for which the IC50 on NLRP3 [1] and at NLRP3 [2] was less than 500 nM in each case.
In the case of `CN1CCCC1CNS(=O)(=O)NC(=O)Nc1c2c(cc3c1CCC3)CCC2` (stereo not drawn) [Example 25, 3-(N-((1-Methylpyrrolidin-2-yl)methyl))sulfamoyl)-1-(1,2,3,5,6,7-hexahydro-s-indacen-4-yl)urea, potassium salt], the IC50 at NLRP3 [1] is less than 500 nM; at NLRP3 [2] it was less than 1000 nM.
With `CC(C)NCCNS(=O)(=O)NC(=O)Nc1c2c(cc3c1CCC3)CCC2` [Example 26], the figures for the IC50 at NLRP3 [1] and at NLRP3 [2] were less than 1000 nM and less than 500 nM, respectively.
With `CC(C)NCCN(C(C)C)S(=O)(=O)NC(=O)Nc1c2c(cc3c1CCC3)CCC2` [Example 28, 3-(N-Isopropyl-N-(2-(isopropylamino)ethyl))sulfamoyl)-1-(1,2,3,5,6,7-hexahydro-s-indacen-4-yl)urea, potassium salt], the IC50 on NLRP3 [1] and on NLRP3 [2] was less than 500 nM each time.
On to `CC(C)N1C2CCC1CN(S(=O)(=O)NC(=O)Nc1c3c(cc4c1CCC4)CCC3)C2` [Example 29, N-((1,2,3,5,6,7-Hexahydro-s-indacen-4-yl)carbamoyl)-8-isopropyl-3,8-diazabicyclo[3.2.1]octane-3-sulfonamide, potassium salt], for which the IC50 on NLRP3 [1] and at NLRP3 [2] was less than 500 nM in each case.
For `CC(CNS(=O)(=O)NC(=O)Nc1c2c(cc3c1CCC3)CCC2)N(C)C` (stereo not drawn) [Example 30, 3-(N-(2-(Dimethylamino)propyl))sulfamoyl)-1-(1,2,3,5,6,7-hexahydro-s-indacen-4-yl)urea, potassium salt], the IC50 is less than 500 nM at NLRP3 [1] and less than 1000 nM on NLRP3 [2].
Consider `CN1CCC1CNS(=O)(=O)NC(=O)Nc1c2c(cc3c1CCC3)CCC2` (stereo not drawn) [Example 31, 3-(N-((1-Methylazetidin-2-yl)methyl))sulfamoyl)-1-(1,2,3,5,6,7-hexahydro-s-indacen-4-yl)urea, potassium salt], for which the half-inhibitory concentration (IC50) on NLRP3 [1] and on NLRP3 [2] was less than 500 nM in each case.
Consider `CN1CC(NS(=O)(=O)NC(=O)Nc2c3c(cc4c2CCC4)CCC3)C1` [Example 34, 3-(N-(1-Methylazetidin-3-yl))sulfamoyl)-1-(1,2,3,5,6,7-hexahydro-s-indacen-4-yl)urea, potassium salt], for which the concentration for half-maximal inhibition (IC50) on NLRP3 [1] and at NLRP3 [2] was less than 500 nM throughout.
As for `O=C(Nc1c2c(cc3c1CCC3)CCC2)NS(=O)(=O)NCCN1CCC1` [Example 35, 3-(N-(2-(Azetidin-1-yl)ethyl)sulfamoyl)-1-(1,2,3,5,6,7-hexahydro-s-indacen-4-yl)urea, potassium salt], the results for the IC50 on NLRP3 [1] and at NLRP3 [2] were less than 1000 nM and less than 5000 nM, respectively.
With `CN1CC2CCC(C1)N2S(=O)(=O)NC(=O)Nc1c2c(cc3c1CCC3)CCC2` [Example 37, N-((1,2,3,5,6,7-Hexahydro-s-indacen-4-yl)carbamoyl)-3-methyl-3,8-diazabicyclo[3.2.1]octane-8-sulfonamide, potassium salt], the IC50 at NLRP3 [1] is less than 1000 nM; on NLRP3 [2], less than 500 nM.
On the same counts, the results for `CC(C)N1CC2CCC(C1)N2S(=O)(=O)NC(=O)Nc1c2c(cc3c1CCC3)CCC2` [Example 38, N-((1,2,3,5,6,7-Hexahydro-s-indacen-4-yl)carbamoyl)-3-isopropyl-3,8-diazabicyclo[3.2.1]octane-8-sulfonamide, potassium salt] are less than 1000 nM and less than 500 nM.
`CCN(CCN(C)C)S(=O)(=O)NC(=O)Nc1c2c(cc3c1CCC3)CCC2` [Example 39, 3-(N-(2-(Dimethylamino)ethyl)-N-ethylsulfamoyl))-1-(1,2,3,5,6,7-hexahydro-s-indacen-4-yl)urea, potassium salt]: the IC50 at NLRP3 [1] was less than 1000 nM; on NLRP3 [2], less than 500 nM.
Take `CN(C)[C@@H]1C[C@H]2CC[C@@H](C1)N2S(=O)(=O)NC(=O)Nc1c2c(cc3c1CCC3)CCC2` [Example 77, (1R,3s,5S)-3-(Dimethylamino)-N-((1,2,3,5,6,7-hexahydro-s-indacen-4-yl)carbamoyl)-8-azabicyclo[3.2.1]octane-8-sulfonamide]: at NLRP3 [2], the IC50 is less than 10000 nM.
Take `CCN(CC)[C@@H]1C[C@H]2CC[C@@H](C1)N2S(=O)(=O)NC(=O)Nc1c2c(cc3c1CCC3)CCC2` [Example 78, (1R,3s,5S)-3-(Diethylamino)-N-((1,2,3,5,6,7-hexahydro-s-indacen-4-yl)carbamoyl)-8-azabicyclo[3.2.1]octane-8-sulfonamide]: on NLRP3 [2], the IC50 is less than 5000 nM.
As for `CN(C)[C@H]1C[C@H]2CC[C@@H](C1)N2S(=O)(=O)NC(=O)Nc1c2c(cc3c1CCC3)CCC2` [Example 79, (1R,3r,5S)-3-(Dimethylamino)-N-((1,2,3,5,6,7-hexahydro-s-indacen-4-yl)carbamoyl)-8-azabicyclo[3.2.1]octane-8-sulfonamide], the 50% inhibitory concentration (IC50) at NLRP3 [1] was less than 500 nM.
As to `CN(C)CC1CCCN1S(=O)(=O)NC(=O)Nc1c2c(cc3c1CCC3)CCC2` (stereo not drawn) [Example 82, 2-((Dimethylamino)methyl)-N-((1,2,3,5,6,7-hexahydro-s-indacen-4-yl)carbamoyl)pyrrolidine-1-sulfonamide, potassium salt], the concentration for half-maximal inhibition (IC50) on NLRP3 [2] is less than 5000 nM.
The same measure, in the same setting: the result for `CN1CC2CN(S(=O)(=O)NC(=O)Nc3c4c(cc5c3CCC5)CCC4)CC2C1` (stereo not drawn) [Example 99, N-((1,2,3,5,6,7-Hexahydro-s-indacen-4-yl)carbamoyl)-5-methylhexahydropyrrolo[3,4-c]pyrrole-2(1H)-sulfonamide] reads less than 5000 nM; that for `CN1C2CC1CN(S(=O)(=O)NC(=O)Nc1c3c(cc4c1CCC4)CCC3)C2` [Example 100, N-((1,2,3,5,6,7-Hexahydro-s-indacen-4-yl)carbamoyl)-6-methyl-3,6-diazabicyclo[3.1.1]heptane-3-sulfonamide], less than 500 nM.
Consider `CC(C)c1cc(F)cc(-c2ccnc(C#N)c2)c1NC(=O)NS(=O)(=O)N(C)C1CCN(C)C1` (stereo not drawn) [Example 101], for which the half-maximal inhibitory concentration (IC50) at NLRP3 [2] is less than 5000 nM.
Still for that read-out and setting: to `CC(C)c1cc(F)cc(-c2ccnc(C#N)c2)c1NC(=O)NS(=O)(=O)N(C)CC1CCCN1C` (stereo not drawn) [Example 102] belongs less than 5000 nM.
For the compound `Cc1nc(C(C)C)c(NC(=O)NS(=O)(=O)N(C)C2CCN(C)C2)n1-c1ccncc1` (stereo not drawn) [Example 109, 1-(5-Isopropyl-2-methyl-3-(4-pyridyl)imidazol-4-yl)-3-(methyl-(1-methylpyrrolidin-3-yl)sulfamoyl)urea], at NLRP3 [2], the concentration for half-maximal inhibition (IC50) is less than 10000 nM.
